Assay results published in patent US20080160059A1, “ANTIBIOTIC/ANTIMYCOTIC PREPARATION AND USE IN PLANTS” (priority 2006, published 2008).
Where a name gives a salt, the structure may show the parent alone.

Tested on: Burkholderia andropogonis
Experiment: Absorbent disc test on a bacterial lawn on agar (kill zone)
Assay type: cell-based
Conditions: intermediate concentration tested; absorbent discs on bacterial lawn
Text: To determine the sensitivity of Burkholderia andropogonis, a stock was applied to commercially prepared agar-containing Petri dishes to provide dishes containing a lawn of bacteria. Then, absorbent discs containing a mixture of oxytetracycline hydrochloride and copper oxychloride, and each of the active ingredients separately, oxytetracycline hydrochloride alone and copper oxychloride alone were placed onto the bacterial lawn. The concentrations of the individual active agents in the discs were the same as that for each found in the combination. The combination and the individual actives were tested at three different concentrations. Each concentration was run in triplicate.
An analogous commercially available system for making routine determinations of bacterial and fungal sensitivity also was used.
The toxicity at each concentration was far greater than the sum of the toxicities of each active agent alone, for example, at the intermediate concentration tested, the bacteria kill zone for oxytetracycline was 3.3 mm in diameter; for copper oxychloride, the zone was 2 mm in diameter; but for the combination, the kill zone was 15 mm in diameter.

Structure (SMILES)	bacteria kill zone in diameter [mm]
[Cl-].[Cu+2].[Cu+2].[OH-].[OH-].[OH-] [copper oxychloride]	2
CN(C)[C@@H]1C(O)=C(C(N)=O)C(=O)[C@@]2(O)C(O)=C3C(=O)c4c(O)cccc4[C@@](C)(O)[C@H]3[C@H](O)[C@@H]12 [oxytetracycline hydrochloride]	3.3
